{"source": "patent US12590054B2", "about": "(Board of Regents, The University of Texas System, priority 2021, dated 2026)", "key": {"[1]": {"assay": "Tissue distribution after single i.v. injection in male CD-1 mice", "conditions": "for rank order of the exposure of the organs to the parent drug: i.v. administration"}, "naïve mice": {"test_system": "naïve mice", "assay": "Abuse liability, conditioned place preference (CPP) paradigm", "type": "in vivo, mouse", "conditions": "2-day conditioning", "description": "Experimental approaches. […] Specifically, one day after measuring natural place preference, vehicle was be given in the morning, and the mouse was placed in its preferred chamber for 20 min. In the afternoon, test drugs were given, and the mouse was placed in its non-preferred chamber for 20 min. This conditioning procedure was repeated 2 times. One day after the last conditioning session, CPP for the drug-paired chamber was measured for 20 min."}, "[2]": {"test_system": "mice with plantar incision", "assay": "Postoperative pain model (plantar incision), von Frey paw withdrawal", "conditions": "for effect on postoperative mechanical hypersensitivity: post-operative treatment", "procedure": "(§1) Animal models of pain. To model postoperative pain in mice, plantar incision was performed under isoflurane anesthesia. Specifically, a 4-8 mm incision was made through the skin, fascia, and muscle of the plantar side of one hind paw, longitudinally starting from the proximal edge of the heel. The skin was apposed with sutures (Fine Science Tools, Foster City, CA). The suture was removed at the end of postoperative day 2. To model neuropathic pain in mice, a surgery was performed to ligate the fifth lumbar (L5) spinal nerve (spinal nerve ligation, SNL).\n(§2) Behavioral testing. Mechanical pain sensitivity after plantar incision or SNL was assessed by measuring paw withdrawal behaviors in response to von Frey filament (VFF) probing. A mouse was placed in a plastic chamber on top of a mesh screen platform. The VFF of 0.98 mN was applied perpendicularly to the hind paw. […] The percent of withdrawal responses out of the ten trials was recorded.\n(§3) Statistical analysis. We used a generalized linear mixed model to analyze the number of withdrawals out of 10 trials (binomial distribution) repeatedly measured at multiple time points (AR1 covariance structure) with random intercepts for subject (i.e., mouse) variances. Degrees of freedom were allowed to vary across tests by Satterthwaite approximation."}, "[3]": {"test_system": "mice with spinal nerve ligation (SNL)", "assay": "Neuropathic pain model (spinal nerve ligation, SNL), von Frey paw withdrawal", "procedure": "as §1, §2, §3"}, "human hepatic microsomes": {"test_system": "human hepatic microsomes", "conditions": "pooled human liver microsomes, 50-200 μM substrate, 20 min, 37° C.", "procedure": "The reaction was incubated for 20 min at 37° C. and terminated by the addition of 1.2 mL of cold acetonitrile.\nAnalytical method: An LC-MS/MS method for the quantification of EDDP, d3-EDDP and d6-EDDP was developed and validated. The samples were analyzed with an API 4000 triple quadrupole mass spectrometer coupled with an Agilent HPLC 1200 system (Applied Biosystems, Foster City, CA). […] Separation of EDDP, d3-EDDP and d6-EDDP was achieved by a Waters Symmetry C18 HPLC column at 45° C."}, "[4]": {"assay": "Plasma pharmacokinetics after single i.v. injection in male CD-1 mice", "conditions": "parent drug in plasma, 2.0 mg/kg i.v."}, "Swiss mice": {"test_system": "Swiss mice", "conditions": "intraperitoneally (i.p.); cited from earlier work"}, "[5]": {"conditions": "3 mg/kg i.p., once daily for 4 days"}}, "note": "Entries after “also recorded” stand apart in the source; their conditions may differ.", "data": [{"molecule": "[2H]C([2H])([2H])CC(=O)C(CC(C)N(C([2H])([2H])[2H])C([2H])([2H])[2H])(c1ccccc1)c1ccccc1", "note": "(racemic) [d9-methadone]", "values": [{"measurement": "rank order of the exposure of the organs to the parent drug", "setting": "[1]", "result": "lungs>kidneys≈liver>spleen>heart>brain"}, {"measurement": "Kp", "setting": "[1]; male, CD-1, mouse, in vivo, iv, 2 mg/kg", "result": "0.35 ± 0.12"}, {"measurement": "conditioned place preference for the drug-paired chamber", "setting": "naïve mice", "result": "did not develop conditioned place preference; also recorded: did not develop CPP; also recorded: did not show any apparent conditioned place preference"}, {"measurement": "postoperative mechanical hypersensitivity vs methadone-treated mice, next day", "setting": "[2]; intra-operative treatment, 3 mg/kg i.p.", "result": "no difference"}, {"measurement": "postoperative mechanical hypersensitivity vs methadone-treated mice, day of surgery (2 hr, 4 hr)", "setting": "[2]; intra-operative treatment, 3 mg/kg i.p. before plantar incision", "result": "lower postoperative mechanical hypersensitivity"}, {"measurement": "development of analgesic tolerance", "setting": "[2]; once daily for 4 days, 3 mg/kg i.p.", "result": "no development of the apparent analgesic tolerance"}, {"measurement": "effect on postoperative mechanical hypersensitivity", "setting": "[2]; [5]", "result": "alleviated hypersensitivity after each systemic injection"}, {"measurement": "Cohen's d, % withdrawals before and after treatment", "setting": "[2]; postoperative treatment, paired comparison", "result": "> 20"}, {"measurement": "Cohen's d between methadone and d9-methadone groups, % of withdrawals 4 hours post-incision", "setting": "[2]; preliminary intra-operative treatment", "result": 2.1}, {"measurement": "effect on neuropathic pain (tactile allodynia)", "setting": "[3]; 3 mg/kg i.p. once daily for 3 days after SNL", "result": "effectively alleviated this neuropathic pain after each injection; also recorded: effectively inhibited this neuropathic pain after each injection"}, {"measurement": "development of analgesic tolerance", "setting": "[3]; once daily for 3 days, 3 mg/kg i.p.", "result": "no development of the apparent analgesic tolerance"}, {"measurement": "biotransformation (N-demethylation) rate compared to the non-deuterated substrate", "setting": "human hepatic microsomes", "result": "further decreased the rate"}]}, {"molecule": "CCC(=O)C(CC(C)N(C)C)(c1ccccc1)c1ccccc1", "note": "(racemic) [methadone, 6-(dimethylamino)-4,4-diphenylheptan-3-one]", "values": [{"measurement": "rank order of the exposure of the organs to the parent drug", "setting": "[1]", "result": "kidneys≈lungs>spleen>liver>heart>brain"}, {"measurement": "AUC0-8 h", "setting": "[4]", "result": "414 ± 67", "unit": "ng·h/mL"}, {"measurement": "AUC0-∞", "setting": "[4]", "result": "436 ± 75", "unit": "ng·h/mL"}, {"measurement": "Tmax", "setting": "[4]", "result": "0.08 ± 0^ h"}, {"measurement": "Cmax", "setting": "[4]; mean ± s.d.", "result": "521 ± 55", "unit": "ng/mL"}, {"measurement": "conditioned place preference for the drug-paired chamber", "setting": "naïve mice", "result": "developed CPP; also recorded: relatively weaker conditioned place preference"}, {"measurement": "effect on postoperative mechanical hypersensitivity", "setting": "[2]; [5]", "result": "unable to reduce"}, {"measurement": "LD50", "setting": "Swiss mice", "result": 41, "unit": "mg/kg"}]}, {"molecule": "CCC1=[N+](C)C(C)CC1(c1ccccc1)c1ccccc1", "note": "(stereo not drawn) [EDDP, 2-ethylidine-1,5-dimethyl-3,3-diphenylpyrrolidine]", "values": [{"measurement": "rank order of the exposure of the organs to the metabolite", "setting": "[1]; i.v. administration of the parent drug", "result": "lungs>liver>kidney≈heart>spleen"}]}, {"molecule": "C=CC[N+]1(C)CC[C@]23c4c5ccc(O)c4O[C@H]2C(=O)CC[C@@]3(O)[C@H]1C5", "note": "(stereo partly drawn) [NLXM, naloxone methiodide, reference compound]", "values": [{"measurement": "effect of NLXM on the relief of postoperative pain by d9-methadone", "setting": "[2]; NLXM 10 mg/kg i.p. 30 minutes before d9-methadone", "result": "completely blocked the effect of d9-methadone"}]}, {"molecule": "[2H]C([2H])([2H])CC(=O)C(CC(C)N(C)C)(c1ccccc1)c1ccccc1", "note": "(stereo not drawn) [d3-methadone, reference compound]", "values": [{"measurement": "biotransformation (N-demethylation) rate compared to the non-deuterated substrate", "setting": "human hepatic microsomes", "result": "significantly decreased the biotransformation"}]}, {"molecule": "CN1CC[C@]23c4c5ccc(O)c4O[C@H]2[C@@H](O)C=C[C@H]3[C@H]1C5", "note": "[morphine]", "values": [{"measurement": "conditioned place preference for the drug-paired chamber", "setting": "naïve mice", "result": "spent significantly more time in the bright chamber; also recorded: developed CPP"}]}]}
